Test results as given in patent US10766942B2, “Fragments of syndecan-2 having anti-angiogenic activity” (Queen Mary University of London, priority 2014, dated 2020).

Columns and labels:
HUVECs [1] = experiment: Scratch wound cell migration assay on HUVEC monolayers; type: cell-based, human
Experimental: In this assay scratches are made in confluent monolayers of HUVECS and the cells incubated in the presence or absence of different concentrations of the human syndecan-2 peptides. Cell migration is measured by time lapse microscopy using an Olympus IX81 microscope with a controlled environment chamber set at 37° C., 10% CO2. Images were captured every 30 minutes using a Hamamatsu Orca ER digital camera and processed using Cell^M software (Olympus). […]
In one assay, scratches were made in confluent monolayers of HUVECs and the cells incubated in the presence or absence of different concentrations of hS2pep (human syndecan-2 peptide) and scrambled peptides (FIG. 1A).
Scratch wound migration assays: Scratch wound migration assays were performed on confluent monolayers of ECs. Wounds were made using a pipette tip, and fusion proteins were added to the medium and images were captured every 30 minutes for 12 hours by time lapse microscopy using an Olympus IX81 microscope. Percentage wound closure was calculated and individual cells tracked using Image J.

HUVECs [2] = experiment: Capillary network (tubule) formation of HUVECs on growth factor depleted Matrigel; type: cell-based, human; details: 1 μm, FIG. 3B
Experimental: 80,000 HUVECs were seeded into 24 well plates coated with 100 μl/well of growth factor depleted Matrigel (BD Sciences) in the presence of the human syndecan-2 peptides scr or hS2pep at the concentrations indicated (scr corresponds to a scrambled control peptide). Tubule formation was monitored by time lapse microscopy using an Olympus IX81 microscope with a controlled environment chamber set at 37° C., 10% CO2. Images were captured every 30 minutes using a Hamamatsu Orca ER digital camera and processed using Cell^M software (Olympus). (A) Phase contrast images of tubules after 6 hours in culture. (B) Branch points were counted on at least four representative images. A branch point is defined at which two or more tubules meet.
To investigate the inhibitory effect of peptides derived from human syndecan-2, 80,000 HUVECs were seeded into 24 well plates coated with 100 ul/well of growth factor depleted Matrigel in the presence of scr or hS2pep. Tubule formation was monitored by time lapse microscopy (FIG. 3A).

murine skin ECs = experiment: Endothelial cell invasion through Collagen I (transwell); type: cell-based; details: 1 uM, counted after 24 hours, vs scr
Experimental: 50,000 skin ECs were seeded and cells which had passed through the matrix were counted after 24 hours. Cells were stained with Calcein (5 μM) and cells imaged using an Olympus IX81 inverted microscope and a Hamamatuse Orca ER digital camera. Fluorescent cells are shown in (A) and the % migrated cells compared to the untreated control is shown in B. Cell numbers were counted from four independent images and error bars represent the SEM. Significance was calculated using 1 way ANOVA with Tukey's multiple comparison p<0.0001).
Invasion through the extracellular matrix is another indicator of angiogenesis. Collagen I matrices containing 1 uM of hS2pep and scr were prepared in an […] transwell. 50,000 murine skin ECs were seeded and cells which had passed through the matrix were counted after 24 hours.
Invasion assay: Invasion assays through collagen and Matrigel matrices were performed in 24-well plates with transwell inserts (Millipore; 8 μm pore size, polyester (PET) membrane). […] Invasion was measured after 6 hours after which time gels were removed with a cotton swab, the filter washed in PBS and stained with calcein (Invitrogen) and the number of cells attached to the filter was counted.

murine aortic ring = experiment: Mouse aortic ring model of angiogenic sprout formation; type: cell-based; details: 0.5 μM in medium; sprouts counted after 7 days; murine aortic rings
Experimental: Aortic ring assay: Thoracic aortas dissected from cervically dislocated 180-200 g male wistar rats (Harlan Laboratories) or 6 week old C57BL/6 mice (Charles River) were sliced into 0.5 mm sections and incubated overnight in serum free OptiMEM (Invitrogen) at 37° C. Aortic rings were embedded in type I collagen (1 mg/ml) in E4 media (Invitrogen) containing either GST, syndecan-2 mutant proteins or peritoneal exudates in 48 well plates. Wells were supplemented with OptiMEM with 1% FBS and 10 ng/ml VEGF (R and D systems, 30 ng/ml for murine rings) and incubated at 37° C., 10% CO2. Angiogenic sprouts from rat and mouse aortas were counted after 4 days and 8 days respectively (Method based on that of Nicosia and Ottinetti (Laboratory Investigation 63:115-122, 1990) and modified in De Rossi et al. (Journal of Genetic Syndromes & Gene Therapy 4, 2013).
The peptide was added to the medium and sprouts were counted after 7 days in culture. Data represents the mean of at least 15 rings and error bars represent the SEM. Significance is indicated on the basis of a non-paired students t test (p***<0.001).

Choroid explants = experiment: Choroid explant model of angiogenic sprout formation; type: cell-based, mouse; details: doses 0.1 μM to 1 μM, counted after 7 days
Experimental: 18 day old C57BL6 mice were sacrificed by cervical dislocation and eyes were enucleated prior to an incision being made 1 mm below the iris and removal of the iris, cornea lens and retina. The choroid is then removed flattened and cut into 1 mm pieces prior to incubation in serum free OptiMEM o/n at 37° C. Choroid explants are then embedded in a Collagen I matrix containing scrambled or experimental peptides and supplemented with OptiMEM containing 10 ng/ml murine VEGFA. Angiogenic sprouts were counted after 7 days.
The choroid is a vascular bed beneath the retinal pigment epithelium and supplies oxygen and nutrients to the outer retina. The choroid can be readily isolated from the murine eye and when placed in a suitable medium and after 4-6 days in culture vessel sprouting occurs and can be quantified. This assay recapitulates Choroidal neovascularisation, the cause of central vision loss in wet Age Related Macular Degeneration. […] Data is the mean number of sprouts from at least 6 Choroid explants from a total of 8 animals. Error bars represent the SEM and significance was calculated using a students t test p<0.05.

[3] = tested on: choroidal neovascularisation; experiment: Laser-induced choroidal neovascularisation in vivo; parameters: species or system mouse; details: C57BL mice; 1 μM; 7 days post injury; injected into the eyes
Experimental: 6 Week old C57BL mice were anaesthetised on day 0 and 3 laser burns were applied to both eyes. On day 3, 1 μl of 4 μM QM107 (hS2pep), PBS or 4 μM scrambled control were injected into both eyes of the animals. On day 7 the choroidal neovascularisation, in response to the laser lesion, were observed by fluorescein angiography. The area of Choroidal neovascularistaion was then calculated by analysis of images using IMAGEJ.
C57BL mice were treated as described above and it is evident from FIG. 11 that around 30% less choroidal neovascularisation occurs in mice treated with 1 μM of QM107 7 days post injury as compared to animals treated with PBS or the scrambled control. N=10 for each condition and significance was calculated using a students t test.

Matrigel plugs = experiment: Matrigel plug assay (haemoglobin content); type: in vivo, mouse; details: 50 μM incorporated in plug; C57BL6 mice; vs scrambled peptide control or PBS
Experimental: Mice were sacrificed after three days and the plugs excised, photographed and incubated overnight in PBS. Haemoglobin was quantified using Drabkin's reagent (Sigma) as described by the manufacturer. All experiments were performed under the UK legislation for the protection of animals, and at the end of all in vivo procedures involving anaesthesia, animals were humanely killed by cervical dislocation in accordance with UK Home Office regulations. Excised plugs were frozen in liquid nitrogen and subsequently embedded in ice cold OCT, 15 μm sections were made using a cryostat at −20° C. Following fixation with 4% PFA for 5 min and blocking with 10% Normal Goat Serum for 15 min, sections were stained for nuclei (DRAQ5) and the EC marker CD31 overnight. Images were captured using a PASCAL laser-scanning confocal microscope (Carl Zeiss, 10× objective). Quantification was performed using the IMARIS software and Photoshop (Adobe), ECs were identified by co-localization of nuclei with CD31 staining.
Data is from 2 plugs per animal and is the mean of two measurements.

hS2pep: Peptide derived from human syndecan-2 (SEQ ID NO 6); development name QM107 (PAEEDTNVYTEKHSDSLF; hS2pep peptide derived from human syndecan-2)
Scratch wound closure (HUVECs [1]; 1 uM, HUVECs, FIG. 1B): greatly reduced | HUVEC cell migration (HUVECs [1]; after 4 hours in culture, vs scrambled peptide): significantly inhibited | Capillary network formation (number of branch points) (HUVECs [2]): inhibited | Invasion through collagen I (murine skin ECs): inhibited | Angiogenic sprout formation (murine aortic ring): inhibited | Formation of angiogenic sprouts (Choroid explants): inhibit the formation of angiogenic sprouts | Reduction of choroidal neovascularisation (area) compared to PBS or scrambled control [3]: around 30% | Haemoglobin content of Matrigel plugs (Matrigel plugs): greatly reduced
